Source: patent US8049020B2 (priority 2006, dated 2011)

Key:
murine splenocytes = test: ConA mitogen-stimulated proliferation of murine splenocytes ([3H]-thymidine incorporation); format: cell-based, mouse (BALB/c); details: for IC50: ConA 1 μg/ml, [3H]-thymidine incorporation, nonlinear regression, read-out: IC50 (dose of compound required to inhibit 50% of a proliferating population of murine splenocytes); for Effect on splenocyte proliferation (counts per minute vs concentration, FIG. 1 and 2): ConA-stimulated murine splenocytes, result in words
Procedure: I. ConA Mitogen-Stimulated Proliferation of Murine Splenocytes
The concanavalin A (ConA) cell proliferation assay was used to assess the effect of test homoserine lactone (HSL) compounds on T-cell activation and proliferation. Proliferation was assessed by the incorporation of [^3H]-thymidine into DNA. Eight-week-old female BALB/c mice were obtained from Harlan (Bicester, Oxon, UK) and given food and water ad libitum. Splenocyte suspensions were prepared by removing the spleens and placing them into RPMI 1640 medium. The spleens were forced through 70-μm-pore-size wire gauzes using the plunger from a 5-ml syringe to produce a single cell suspension. The cells were pelleted by centrifugation, and erythrocytes were lysed with 0.017 M Tris, 0.144 M ammonium chloride buffer, pH 7.2. Leucocytes were washed twice with RPMI 1640 medium with 2% (vol/vol) foetal calf serum (FCS) and resuspended in complete cell culture medium (CTCM) consisting of RPMI 1640 medium with 5% FCS, 2 mM L-glutamine, and 5×10^−5 M 2-mercaptoethanol. HSL compounds were tested at doubling down dilutions ranging from 1 mM to 0.1 μM in a final volume of 200 μl of CTCM, containing ConA (Sigma, Poole, UK) at 1 μg/ml and 100,000 spleen cells. Following incubation for 48 h at 37° C. in 5% CO2-air, 0.25 μCi[^3H]-thymidine (Amersham) in 10 μl volume made up in RPMI 1640 medium was added and the cells were incubated for a further 24 h. Cells were harvested onto fibreglass filters with a Packard filtermate harvester. After the addition of 25 μl of MicroScint-O (Packard) to each well, the filters were counted with the Packard TopCount scintillation counter.
Mitogen (Concanavalin A) induced murine splenocyte proliferation was indicated by the incorporation of tritated thymidine into the DNA in the mouse spleen cells as shown by counts per minute using the scintillation counter. The inhibitory effect of an HSL compound being tested on cell proliferation was indicated by a reduction in counts per minute.
The IC50 value, i.e. the dose of compound (micromolar) required to inhibit 50% of a proliferating population of murine splenocytes, was determined for 4-aza-OdDHL, 4-methyl-4-aza-OdDHL and for the compound N-(2-fluoro-4-aza-3-oxododecanoyl)-L-homoserine lactone (2-fluoro-4-aza-OdDHL).

[1] = test system: E. coli JM109 harbouring the reporter plasmid pSB1075 (P. aeruginosa lasR gene and lasI promoter fused to luxCDABE); test: Autoinducer activity: lux-based bioluminescence bioreporter assay; format: cell-based; details: 10 μM compound; 4 hours at 37° C.; relative to OdDHL
Procedure: Also determined for each of these compounds was the autoinducer activity as a measure of the ability of the compound to induce light production in a specifically designed bacterial bioreporter system. Autoinducer (A.I.) activity was measured by the ability of the test N-acyl homoserine lactone compound (AHL) to induce bioluminescence in E. coli containing a lux-based bioluminescence reporter plasmid. For detection of a long chain AHL, such as OdDHL, E. coli JM109 harbouring the reporter plasmid pSB1075 was used. This reporter contains the P. aeruginosa IasR gene and IasI promoter fused to IuxCDABE from P. luminescens and preferentially responds to AHLs with acyl chains of 10-14 carbons in length.
Bioassays were performed in 96 well microliter plates. Briefly, 10 μl of the compound being assessed was placed into a microliter well plate and serially diluted using LB broth to produce a concentration range from 100 μM to 100 fM. Similar dilutions were performed on a synthetic OdDHL and used as a positive control. One hundred microliters of an overnight biosensor strain was added to each well and light emission was measured following 4 hours incubation at 37° C. Light production was assessed as counts per second on Perkin Elmer TopCount apparatus calibrated to measure bioluminescence. Values are expressed as a percentage of the bioluminescence measured after exposure of the bioreporter to OdDHL for four hours at 37° C. Logarithmic regression analysis of the range of synthetic OdDHL dilutions typically returned coefficient of determination values above 0.96.

[2] = test system: LPS-stimulated adherent murine peritoneal macrophages (TNF-α production); details: Infection and Immunity, vol. 66, No. 1, January 1998; cited from earlier work
murine spleen cells = details: Infection and Immunity, vol. 66, No. 1, January 1998; cited from earlier work

Row | SMILES | IC50 (murine splenocytes) [µM] | AI activity (autoinducer activity, percentage of the bioluminescence measured after exposure to OdDHL) [1] [%] | Effect on splenocyte proliferation (counts per minute vs concentration, FIG. 1 and 2) (murine splenocytes) | Effect on TNF-α production by LPS-stimulated adherent murine peritoneal macrophages [2] | Effect on ConA mitogen stimulated proliferation of murine spleen cells (murine spleen cells)
1 | CCCCCCCCNC(=O)C(F)C(=O)N[C@H]1CCOC1=O (stereo partly drawn) [2-fluoro-4-aza-OdDHL, 4-Aza-2-fluoro-3-oxododecanoyl-L-homoserine lactone] | 21.8 | 19.9 |  |  | 
2 | CCCCCCCCN(C)C(=O)CC(=O)N[C@H]1CCOC1=O [4-methyl-4-aza-OdDHL, N-(4-aza-4-methyl-3-oxododecanoyl)-L-homoserine lactone] | 14.6 | 23.2 | inhibits splenoctye proliferation |  | 
3 | CCCCCCCCNC(=O)CC(=O)N[C@H]1CCOC1=O [Example 4-aza-OdDHL, N-(4-aza-3-oxododecanoyl)-L-homoserine lactone] | 17.1 | 2.8 | inhibits splenocyte proliferation |  | 
4 | CCCCCCCCCC(=O)CC(=O)N[C@H]1CCOC1=O [OdDHL, N-(3-oxododecanoyl) homoserine lactone, reference compound] | 12.7 | 100.0 | inhibits splenocyte proliferation | inhibiting | inhibiting
